Laboratory results from US10087229B2, “Peptide compound” (TAKEDA PHARMACEUTICAL COMPANY LIMITED, priority 2013, dated 2018).
Square brackets hold non-standard residues; d marks the D form. Peptide text beside a SMILES is read from it. αMeF = C[C@](N)(Cc1ccccc1)C(=O)O; Cha = N[C@@H](CC1CCCCC1)C(=O)O; Aib = CC(C)(N)C(=O)O

Tests used:
[1] = system: Diet-induced obesity (DIO) male C57BL/6J mice; assay: 2-weeks continuous subcutaneous administration study in DIO mice (anti-obesity activity); type: in vivo, mouse; conditions: 1 nmol/kg/day, subcutaneous Alzet pump, 2 weeks after start of administration; rate of weight loss, control group regarded as 0%
Protocol: 2-Weeks Continuous Subcutaneous Administration Study in DIO Mice
The anti-obesity activity of a test compound was examined by the method described below.
Diet-induced obesity (DIO) mice were prepared by feeding male C57BL/6J mice with high-fat diet (D12451: Research Diets, Inc.). The test compound was dissolved in a solvent (50% DMSO) so that sustained release would occur at 1 nmol/kg/day, and the solution was filled in the Alzet Pump (DURECT Corporation, model: 1002). The pump thus filled with the solution to be administered was immersed in physiological saline for priming, and then used. The pump was embedded by the following method. Each male DIO-C57BL/6J mouse at 35-37 weeks of age (20-26° C., allowed to take food and water ad libitum; 12-hour bright-12-hour dark cycle) was anesthetized; the skin in the upper back thereof was incised, and the above-mentioned pump was embedded subcutaneously; the incision was sutured. After weighing, this mouse was returned to the rearing cage (reared alone), and given previously weighed food; the body weight was measured every 1 to 3 days after the start of administration. The anti-obesity activity of each test compound was evaluated on the basis of the rate of weight loss 2 weeks after the start of administration, with the rate of weight loss in a control group receiving administration of the solvent alone regarded as 0%.

[2] = system: male C57BL/6J mouse; assay: 2-days continuous subcutaneous administration test (feeding suppressive activity); type: in vivo; conditions: 10 nmol/kg/day, subcutaneous Alzet pump, 2-days cumulative food consumption, control (solvent alone) = 0%
Protocol: 2-Days Continuous Subcutaneous Administration Test
The feeding suppressive activity of a test compound was examined by the method described below.
The test compound was dissolved in a solvent (50% DMSO) so that sustained release would occur at 10 nmol/kg/day, and the solution was filled in the Alzet Pump (DURECT Corporation, model: 1003D). The pump thus filled with the solution to be administered was immersed in physiological saline for priming, and then used. The pump was embedded by the following method. Each male C57BL/6J mouse at 8-9 weeks of age (20-26° C., allowed to take food and water ad libitum; 12-hour bright-12-hour dark cycle) was anesthetized; the skin in the upper back thereof was incised, and the above-mentioned pump was embedded subcutaneously; the incision was sutured. After weighing, this mouse was returned to the rearing cage (reared alone), and given previously weighed food; food consumption as of 2 days after the start of administration was measured. The food consumption was calculated by subtracting the amount of remaining food from the weight of the food given on the day of the start of administration. When the food consumption of a control group receiving administration of the solvent alone was regarded as a suppression rate of 0%, the feeding suppressive activity of each test compound was evaluated on the basis of 2-days cumulative food consumption after the start of administration. The food intake suppression rate (%) of the test compound was defined as (Food consumption of the control group−Food consumption of the test compound-administered group)/Food consumption of the control group×100.

Structure (SMILES)	Change in body weight [1]	Food intake suppression (%) [2]
CC[C@H](C)[C@H](NC(=O)C(C)(C)NC(=O)[C@H](Cc1ccc(O)cc1)NC(=O)[C@H](CC(=O)O)NC(=O)[C@H](CO)NC(=O)[C@@H](NC(=O)[C@](C)(Cc1ccccc1)NC(=O)[C@@H](NC(=O)CNC(=O)[C@H](CCC(=O)O)NC(=O)C(C)(C)NC(=O)[C@@H](N)Cc1ccc(O)cc1)[C@@H](C)O)[C@@H](C)O)C(=O)NC(C)(C)C(=O)N[C@@H](CC(C)C)C(=O)N[C@@H](CC(=O)O)C(=O)N[C@@H](CCCCN)C(=O)N[C@@H](CCC(N)=O)C(=O)N[C@@H](C)C(=O)N[C@@H](CCC(N)=O)C(=O)N[C@@H](C)C(=O)N[C@@H](CCC(=O)O)C(=O)N[C@@H](Cc1ccccc1)C(=O)N[C@H](C(=O)N[C@@H](CCCCN)C(=O)N[C@@H](Cc1c[nH]c2ccccc12)C(=O)N[C@@H](CC(C)C)C(=O)N[C@@H](CC(C)C)C(=O)N[C@@H](CCCCN)C(=O)NCC(=O)NCC(=O)N1CCC[C@H]1C(=O)N[C@@H](CO)C(=O)N[C@@H](CO)C(=O)NCC(=O)N[C@@H](C)C(=O)N1CCC[C@H]1C(=O)N1CCC[C@H]1C(=O)N1CCC[C@H]1C(=O)N[C@@H](CO)C(=O)N[C@@H](CCCCN)C(N)=O)C(C)C [Example 2] (H-Y[Aib]EGT[αMeF]TSDY[Aib]I[Aib]LDKQAQAEFVKWLLKGGPSSGAPPPSK-NH2)	−16.3	64.80%
CC[C@H](C)[C@H](NC(=O)C(C)(C)NC(=O)[C@H](Cc1ccc(O)cc1)NC(=O)[C@H](CC(=O)O)NC(=O)[C@H](CO)NC(=O)[C@@H](NC(=O)[C@](C)(Cc1ccccc1)NC(=O)[C@@H](NC(=O)CNC(=O)[C@H](CCC(=O)O)NC(=O)C(C)(C)NC(=O)[C@@H](N)Cc1ccc(O)cc1)[C@@H](C)O)[C@@H](C)O)C(=O)NC(C)(C)C(=O)N[C@@H](CC(C)C)C(=O)N[C@@H](CC(=O)O)C(=O)N[C@@H](CCCCN)C(=O)N[C@@H](CCC(N)=O)C(=O)N[C@@H](C)C(=O)N[C@@H](CCC(N)=O)C(=O)N[C@@H](C)C(=O)N[C@@H](CCC(=O)O)C(=O)N[C@@H](Cc1ccccc1)C(=O)N[C@H](C(=O)N[C@@H](CCCCN)C(=O)N[C@@H](Cc1c[nH]c2ccccc12)C(=O)N[C@@H](CC(C)C)C(=O)N[C@@H](CC(C)C)C(=O)N[C@@H](CCCCN)C(=O)NCC(=O)NCC(=O)N1CCC[C@H]1C(=O)N[C@@H](CO)C(=O)N[C@@H](CO)C(=O)NCC(=O)N[C@@H](C)C(=O)N1CCC[C@H]1C(=O)N1CCC[C@H]1C(=O)N1CCC[C@H]1C(=O)N[C@@H](CO)C(N)=O)C(C)C [Example 6] (H-Y[Aib]EGT[αMeF]TSDY[Aib]I[Aib]LDKQAQAEFVKWLLKGGPSSGAPPPS-NH2)	–	65.20%
CC(C)C[C@H](NC(=O)[C@H](CC(C)C)NC(=O)[C@H](Cc1c[nH]c2ccccc12)NC(=O)[C@H](CCCCN)NC(=O)[C@@H](NC(=O)[C@H](Cc1ccccc1)NC(=O)[C@H](CCC(=O)O)NC(=O)[C@H](CCC(N)=O)NC(=O)[C@H](CCC(N)=O)NC(=O)[C@H](C)NC(=O)[C@H](CCC(N)=O)NC(=O)[C@H](CCCCN)NC(=O)[C@H](CC(=O)O)NC(=O)[C@H](CC(C)C)NC(=O)[C@H](Cc1ccc(O)cc1)NC(=O)[C@H](CCCCN)NC(=O)C(C)(C)NC(=O)[C@H](Cc1ccc(O)cc1)NC(=O)[C@H](CC(=O)O)NC(=O)[C@H](CO)NC(=O)[C@@H](NC(=O)[C@](C)(Cc1ccccc1)NC(=O)[C@@H](NC(=O)CNC(=O)[C@H](CCC(=O)O)NC(=O)C(C)(C)NC(=O)[C@@H](N)Cc1ccc(O)cc1)[C@@H](C)O)[C@@H](C)O)C(C)C)C(=O)N[C@@H](CCCCN)C(=O)NCC(=O)NCC(=O)N1CCC[C@H]1C(=O)N[C@@H](CO)C(=O)N[C@@H](CO)C(=O)NCC(=O)N[C@@H](C)C(=O)N1CCC[C@H]1C(=O)N1CCC[C@H]1C(=O)N1CCC[C@H]1C(=O)N[C@@H](CO)C(=O)N[C@@H](CCCCN)C(N)=O [Example 25] (H-Y[Aib]EGT[αMeF]TSDY[Aib]KYLDKQAQQEFVKWLLKGGPSSGAPPPSK-NH2)	−11.2	53.12%
CC[C@H](C)[C@H](NC(=O)C(C)(C)NC(=O)[C@H](Cc1ccc(O)cc1)NC(=O)[C@H](CC(=O)O)NC(=O)[C@H](CO)NC(=O)[C@@H](NC(=O)[C@](C)(Cc1ccccc1)NC(=O)[C@@H](NC(=O)CNC(=O)[C@H](CCC(=O)O)NC(=O)C(C)(C)NC(=O)[C@@H](N)Cc1ccc(O)cc1)[C@@H](C)O)[C@@H](C)O)C(=O)NC(C)(C)C(=O)N[C@@H](CC(C)C)C(=O)N[C@@H](CC(=O)O)C(=O)N[C@@H](CCCCN)C(=O)N[C@@H](CCC(N)=O)C(=O)N[C@@H](C)C(=O)N[C@@H](CCC(N)=O)C(=O)N[C@@H](CO)C(=O)N[C@@H](CCC(=O)O)C(=O)N[C@@H](Cc1ccccc1)C(=O)N[C@H](C(=O)N[C@@H](CCCCN)C(=O)N[C@@H](Cc1c[nH]c2ccccc12)C(=O)N[C@@H](CC(C)C)C(=O)N[C@@H](CC(C)C)C(=O)N[C@@H](CCCCN)C(=O)NCC(=O)NCC(=O)N1CCC[C@H]1C(=O)N[C@@H](CO)C(=O)N[C@@H](CO)C(=O)NCC(=O)N[C@@H](C)C(=O)N1CCC[C@H]1C(=O)N1CCC[C@H]1C(=O)N1CCC[C@H]1C(=O)N[C@@H](CO)C(=O)N[C@@H](CCCCN)C(N)=O)C(C)C [Example 4] (H-Y[Aib]EGT[αMeF]TSDY[Aib]I[Aib]LDKQAQSEFVKWLLKGGPSSGAPPPSK-NH2)	–	57.01%
CC(C)C[C@H](NC(=O)[C@H](CC(C)C)NC(=O)[C@H](Cc1c[nH]c2ccccc12)NC(=O)[C@H](CCCCN)NC(=O)[C@@H](NC(=O)[C@H](Cc1ccccc1)NC(=O)[C@H](CCC(=O)O)NC(=O)[C@H](C)NC(=O)[C@H](CCC(N)=O)NC(=O)[C@H](C)NC(=O)[C@H](CCC(N)=O)NC(=O)[C@H](CCCCN)NC(=O)[C@H](CC(=O)O)NC(=O)[C@H](CC(C)C)NC(=O)[C@](C)(Cc1ccccc1)NC(=O)[C@H](CCCCN)NC(=O)C(C)(C)NC(=O)[C@H](Cc1ccc(O)cc1)NC(=O)[C@H](CC(=O)O)NC(=O)[C@H](CO)NC(=O)[C@@H](NC(=O)[C@](C)(Cc1ccccc1)NC(=O)[C@@H](NC(=O)CNC(=O)[C@H](CCC(=O)O)NC(=O)C(C)(C)NC(=O)[C@@H](N)Cc1ccc(O)cc1)[C@@H](C)O)[C@@H](C)O)C(C)C)C(=O)N[C@@H](CCCCN)C(=O)NCC(=O)NCC(=O)N1CCC[C@H]1C(=O)N[C@@H](CO)C(=O)N[C@@H](CO)C(=O)NCC(=O)N[C@@H](C)C(=O)N1CCC[C@H]1C(=O)N1CCC[C@H]1C(=O)N1CCC[C@H]1C(=O)N[C@@H](CO)C(=O)N[C@@H](CCCCN)C(N)=O [Example 15] (H-Y[Aib]EGT[αMeF]TSDY[Aib]K[αMeF]LDKQAQAEFVKWLLKGGPSSGAPPPSK-NH2)	–	58.80%
CC[C@H](C)[C@H](NC(=O)C(C)(C)NC(=O)[C@H](Cc1ccc(O)cc1)NC(=O)[C@H](CC(=O)O)NC(=O)[C@H](CO)NC(=O)[C@@H](NC(=O)[C@](C)(Cc1ccccc1)NC(=O)[C@@H](NC(=O)CNC(=O)[C@H](CCC(=O)O)NC(=O)C(C)(C)NC(=O)[C@@H](N)Cc1ccc(O)cc1)[C@@H](C)O)[C@@H](C)O)C(=O)N[C@@H](CC1CCCCC1)C(=O)N[C@@H](CC(C)C)C(=O)N[C@@H](CC(=O)O)C(=O)N[C@@H](CCCCN)C(=O)N[C@@H](CCC(N)=O)C(=O)N[C@@H](C)C(=O)N[C@@H](CCC(N)=O)C(=O)N[C@@H](C)C(=O)N[C@@H](CCC(=O)O)C(=O)N[C@@H](Cc1ccccc1)C(=O)N[C@H](C(=O)N[C@@H](CCCCN)C(=O)N[C@@H](Cc1c[nH]c2ccccc12)C(=O)N[C@@H](CC(C)C)C(=O)N[C@@H](CC(C)C)C(=O)N[C@@H](CCCCN)C(=O)NCC(=O)NCC(=O)N1CCC[C@H]1C(=O)N[C@@H](CO)C(=O)N[C@@H](CO)C(=O)NCC(=O)N[C@@H](C)C(=O)N1CCC[C@H]1C(=O)N1CCC[C@H]1C(=O)N1CCC[C@H]1C(=O)N[C@@H](CO)C(=O)N[C@@H](CCCCN)C(N)=O)C(C)C [Example 14] (H-Y[Aib]EGT[αMeF]TSDY[Aib]I[Cha]LDKQAQAEFVKWLLKGGPSSGAPPPSK-NH2)	–	47.47%
